Measurements from ChEMBL document CHEMBL1201862, “PubChem BioAssay data set” (2004).
The source made the active and inactive calls.

How the values were obtained:
[1] = HEK-293T viability loss after treatment – luminescence, T-cell screen hits, cytotoxicity control for TCR NF-kB inhibitor project, dose response (AID 489026); format: functional, cell-based;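 note: cells exposed to compound about 14 hours before the viability readout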
[2] = target: Peroxisome proliferator-activated receptor gamma/Nuclear receptor coactivator 1 (Homo sapiens, UniProt P37231); experiment: TR-FRET dose response biochemical High Throughput Screening assay for agonists of the steroid receptor coactivator 1 (SRC-1) recruitment by the peroxisome proliferator-activated receptor gamma (PPAR gamma): non-selective agonists. [Related pubchem assays (depositor defined):AID1300, AID1808, AID504735, AID631]; format: protein assay
[3] = target: Peroxisome proliferator-activated receptor gamma/Nuclear receptor coactivator 2 (Homo sapiens, UniProt P37231); experiment: (§1) TR-FRET dose response biochemical High Throughput Screening assay for agonists of the steroid receptor coactivator 2 (SRC-2) recruitment by the peroxisome proliferator-activated receptor gamma (PPAR gamma): non-selective agonists. [Related pubchem assays: 1297, 1032 ]; format: functional
[4] = target: Peroxisome proliferator-activated receptor gamma/Nuclear receptor coactivator 3 (Homo sapiens, UniProt P37231); experiment: as §1, with “3 (SRC-3)” for “2 (SRC-2)”, “1301 (Confirmation screen.), 1048 (Primary screen.)]” for “1297, 1032 ]”; format: functional
[5] = NIH-3T3 fibroblast cytotoxicity, dose response, cytotoxicity control, cell-based, fluorescence, Alamar Blue, secondary assay (AID 2327); format: functional;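 note: NIH-3T3 mouse fibroblasts cultured with fluconazole at 8 µg/mL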
[6] = fluconazole-exposed Candida albicans growth modulators – fluorescence, retest, confirmation (AID 2467); format: functional, cell-based
[7] = target: T1, Short transient receptor potential channel 4 (Mus musculus, UniProt Q9QUQ5); experiment: block of DAMGO-driven TRPC4 calcium entry – cell-based, HEK293 TRPC4/mu-opioid, Fluo-4 calcium, dose response (AID 434942); format: functional;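 note: potency of inhibitors blocking the TRPC4 calcium response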
T1 sequence (Q9QUQ5 whole entry): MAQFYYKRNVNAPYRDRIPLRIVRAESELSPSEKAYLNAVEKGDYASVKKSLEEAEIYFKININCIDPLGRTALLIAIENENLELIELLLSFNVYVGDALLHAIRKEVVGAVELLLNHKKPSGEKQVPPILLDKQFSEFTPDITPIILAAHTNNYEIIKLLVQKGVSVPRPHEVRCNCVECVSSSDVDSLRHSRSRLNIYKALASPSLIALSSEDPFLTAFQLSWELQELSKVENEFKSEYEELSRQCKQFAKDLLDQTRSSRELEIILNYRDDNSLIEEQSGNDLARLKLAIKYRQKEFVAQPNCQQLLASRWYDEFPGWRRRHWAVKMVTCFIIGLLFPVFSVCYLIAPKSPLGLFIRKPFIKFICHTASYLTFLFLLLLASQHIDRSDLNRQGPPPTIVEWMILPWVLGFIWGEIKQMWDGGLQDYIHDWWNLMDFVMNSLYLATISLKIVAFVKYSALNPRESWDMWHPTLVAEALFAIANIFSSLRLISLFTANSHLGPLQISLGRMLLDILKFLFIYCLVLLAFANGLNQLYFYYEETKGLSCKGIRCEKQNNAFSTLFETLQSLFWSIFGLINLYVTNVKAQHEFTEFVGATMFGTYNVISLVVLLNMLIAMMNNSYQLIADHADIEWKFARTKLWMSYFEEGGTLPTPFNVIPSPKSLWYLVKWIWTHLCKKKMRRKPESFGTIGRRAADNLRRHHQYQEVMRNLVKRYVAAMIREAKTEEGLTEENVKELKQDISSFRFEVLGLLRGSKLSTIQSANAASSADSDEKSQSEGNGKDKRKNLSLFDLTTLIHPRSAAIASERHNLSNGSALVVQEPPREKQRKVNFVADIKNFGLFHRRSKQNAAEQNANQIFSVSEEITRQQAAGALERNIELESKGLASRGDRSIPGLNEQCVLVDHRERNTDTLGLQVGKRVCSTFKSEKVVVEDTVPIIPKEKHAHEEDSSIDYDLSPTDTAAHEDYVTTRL

[8] = tested on: BJ; experiment: BJ-TERT fibroblast viability loss – cell-based, RAS-independent, luminescence, dose response (AID 1933); format: functional; details: Homo sapiens
[9] = Luminescence Cell-Based Dose Response HTS to Identify Inhibitors of 5'UTR Stem-Loop Driven Prion Protein mRNA Translation in H4 Neuroglioblastoma Cells. [Related pubchem assays: 1827 (Project Summary), 1813 (Primary HTS)]; format: functional
[10] = alpha-synuclein stem-loop luciferase translation blockers – H4 neuroglioma cells, luminescence, confirmation (AID 1988); format: functional, cell-based
[11] = tested on: BJ; experiment: cells; format: functional, cell-based; details: Homo sapiens
[12] = DRD fibroblast viability loss – cell-based, non-viral oncogenic, luminescence, dose response (AID 1934); format: functional; details: Homo sapiens
[13] = tested on: BJ; experiment: BJ-TERT-LT-ST fibroblast viability loss – cell-based, RAS-independent, luminescence, dose response (AID 1935); format: functional; details: Homo sapiens;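 note: BJ fibroblasts immortalized with TERT plus LT and ST oncogenes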
[14] = luciferase reporter signal suppression in cells – H4 neuroglioma cells, luminescence, dose response (AID 1990); format: functional, cell-based
[15] = target: T1, Short transient receptor potential channel 4; experiment: calcium entry via TRPC4 opening agents – cell-based, HEK293 TRPC4/mu-opioid, Fluo-4 calcium, dose response (AID 434937); format: functional

Peroxisome proliferator-activated receptor gamma/Nuclear receptor coactivator 2, sequence (P37231 whole entry): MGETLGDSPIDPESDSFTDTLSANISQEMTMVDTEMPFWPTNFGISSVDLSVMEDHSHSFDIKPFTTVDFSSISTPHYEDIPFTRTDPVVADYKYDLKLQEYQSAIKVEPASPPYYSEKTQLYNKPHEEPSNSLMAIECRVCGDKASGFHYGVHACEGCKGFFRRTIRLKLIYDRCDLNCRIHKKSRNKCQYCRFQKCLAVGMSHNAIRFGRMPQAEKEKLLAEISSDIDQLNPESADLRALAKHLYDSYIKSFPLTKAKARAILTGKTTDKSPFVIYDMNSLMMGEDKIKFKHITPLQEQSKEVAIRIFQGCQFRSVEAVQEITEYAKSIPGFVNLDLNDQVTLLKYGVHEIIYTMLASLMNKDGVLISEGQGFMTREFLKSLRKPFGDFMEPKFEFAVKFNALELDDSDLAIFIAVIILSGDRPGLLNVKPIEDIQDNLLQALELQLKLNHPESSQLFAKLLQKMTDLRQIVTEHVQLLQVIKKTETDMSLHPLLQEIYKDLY
Peroxisome proliferator-activated receptor gamma/Nuclear receptor coactivator 2, sequence (Q15596 whole entry, further chain): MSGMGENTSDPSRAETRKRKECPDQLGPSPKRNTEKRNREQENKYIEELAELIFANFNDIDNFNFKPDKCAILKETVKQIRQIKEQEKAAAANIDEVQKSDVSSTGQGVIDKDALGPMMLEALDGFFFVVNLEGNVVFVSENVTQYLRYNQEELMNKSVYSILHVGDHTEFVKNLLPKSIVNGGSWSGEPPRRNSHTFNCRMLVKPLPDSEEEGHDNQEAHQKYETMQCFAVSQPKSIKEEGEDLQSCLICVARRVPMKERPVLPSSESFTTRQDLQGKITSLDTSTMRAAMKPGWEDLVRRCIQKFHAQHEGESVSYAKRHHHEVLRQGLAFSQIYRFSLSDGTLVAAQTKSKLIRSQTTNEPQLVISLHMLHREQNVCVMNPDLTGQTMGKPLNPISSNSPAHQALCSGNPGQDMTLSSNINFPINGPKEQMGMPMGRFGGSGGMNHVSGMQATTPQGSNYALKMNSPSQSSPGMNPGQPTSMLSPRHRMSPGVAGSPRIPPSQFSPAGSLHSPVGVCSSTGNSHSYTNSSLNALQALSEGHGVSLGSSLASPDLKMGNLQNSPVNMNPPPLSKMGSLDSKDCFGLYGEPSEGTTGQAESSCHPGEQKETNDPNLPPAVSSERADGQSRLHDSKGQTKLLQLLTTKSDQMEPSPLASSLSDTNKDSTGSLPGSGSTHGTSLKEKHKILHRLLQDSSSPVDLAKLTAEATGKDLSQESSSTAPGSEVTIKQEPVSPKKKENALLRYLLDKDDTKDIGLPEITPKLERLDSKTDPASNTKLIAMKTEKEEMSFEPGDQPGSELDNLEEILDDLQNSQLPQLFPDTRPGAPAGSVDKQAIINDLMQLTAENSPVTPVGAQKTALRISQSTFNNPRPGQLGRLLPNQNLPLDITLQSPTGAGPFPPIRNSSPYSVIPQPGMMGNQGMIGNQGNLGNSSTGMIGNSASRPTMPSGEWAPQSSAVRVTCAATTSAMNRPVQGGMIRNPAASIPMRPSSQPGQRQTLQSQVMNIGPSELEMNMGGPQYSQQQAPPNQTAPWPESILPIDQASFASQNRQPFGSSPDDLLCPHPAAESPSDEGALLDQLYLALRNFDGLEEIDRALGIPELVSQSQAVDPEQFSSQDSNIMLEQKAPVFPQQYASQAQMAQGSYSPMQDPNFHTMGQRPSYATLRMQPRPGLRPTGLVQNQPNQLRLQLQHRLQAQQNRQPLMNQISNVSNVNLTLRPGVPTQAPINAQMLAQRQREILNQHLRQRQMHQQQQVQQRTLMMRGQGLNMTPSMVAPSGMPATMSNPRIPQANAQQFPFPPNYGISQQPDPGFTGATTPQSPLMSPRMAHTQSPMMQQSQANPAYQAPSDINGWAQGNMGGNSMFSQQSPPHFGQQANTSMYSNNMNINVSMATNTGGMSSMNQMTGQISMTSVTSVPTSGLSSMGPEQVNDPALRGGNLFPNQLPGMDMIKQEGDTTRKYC
Peroxisome proliferator-activated receptor gamma/Nuclear receptor coactivator 3, sequence (P37231 whole entry): as the sequence (P37231 whole entry) above
Peroxisome proliferator-activated receptor gamma/Nuclear receptor coactivator 3, sequence (Q9Y6Q9 whole entry, further chain): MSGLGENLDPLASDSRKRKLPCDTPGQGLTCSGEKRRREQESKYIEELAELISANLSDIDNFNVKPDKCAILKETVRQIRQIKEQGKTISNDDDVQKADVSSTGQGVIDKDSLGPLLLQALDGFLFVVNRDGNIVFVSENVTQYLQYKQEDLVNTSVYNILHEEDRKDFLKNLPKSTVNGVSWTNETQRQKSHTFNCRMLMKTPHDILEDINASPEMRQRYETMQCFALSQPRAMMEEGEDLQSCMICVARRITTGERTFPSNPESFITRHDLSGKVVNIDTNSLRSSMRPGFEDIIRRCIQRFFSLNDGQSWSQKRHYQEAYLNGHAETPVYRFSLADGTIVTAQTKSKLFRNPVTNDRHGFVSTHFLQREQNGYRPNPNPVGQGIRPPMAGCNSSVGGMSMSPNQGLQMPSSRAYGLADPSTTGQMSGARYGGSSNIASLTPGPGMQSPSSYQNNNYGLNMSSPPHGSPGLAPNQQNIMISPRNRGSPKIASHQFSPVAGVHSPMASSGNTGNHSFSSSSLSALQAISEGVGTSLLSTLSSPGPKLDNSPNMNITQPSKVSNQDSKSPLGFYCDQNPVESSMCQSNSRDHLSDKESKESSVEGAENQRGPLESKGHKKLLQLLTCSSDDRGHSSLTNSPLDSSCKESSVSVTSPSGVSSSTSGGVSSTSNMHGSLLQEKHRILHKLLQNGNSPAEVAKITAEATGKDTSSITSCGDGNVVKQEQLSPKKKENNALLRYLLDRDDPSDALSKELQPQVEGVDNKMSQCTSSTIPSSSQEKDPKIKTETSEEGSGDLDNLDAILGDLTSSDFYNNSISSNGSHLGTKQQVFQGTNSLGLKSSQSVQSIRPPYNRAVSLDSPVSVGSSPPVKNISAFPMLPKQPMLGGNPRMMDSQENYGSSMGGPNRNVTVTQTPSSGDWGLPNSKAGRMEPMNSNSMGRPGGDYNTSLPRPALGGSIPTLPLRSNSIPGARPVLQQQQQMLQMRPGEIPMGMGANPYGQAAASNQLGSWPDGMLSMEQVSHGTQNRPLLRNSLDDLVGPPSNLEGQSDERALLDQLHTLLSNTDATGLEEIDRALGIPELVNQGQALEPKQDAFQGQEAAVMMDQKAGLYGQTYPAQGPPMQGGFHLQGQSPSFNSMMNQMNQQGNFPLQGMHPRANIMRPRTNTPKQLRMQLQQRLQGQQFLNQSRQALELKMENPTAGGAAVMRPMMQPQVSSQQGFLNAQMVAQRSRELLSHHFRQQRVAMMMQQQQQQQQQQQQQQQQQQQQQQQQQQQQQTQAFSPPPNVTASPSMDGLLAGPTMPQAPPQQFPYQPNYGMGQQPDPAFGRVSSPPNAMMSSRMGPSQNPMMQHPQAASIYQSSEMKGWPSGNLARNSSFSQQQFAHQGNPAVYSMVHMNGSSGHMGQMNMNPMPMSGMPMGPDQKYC

Question: With Cc1cc(-c2ccc(C(C)C)c(S(=O)(=O)N3CCN(c4ccccc4)CC3)c2)on1 as the compound, how does the IC50 [1] read?
Answer: Its IC50 is > 80 µM (inactive).

Question: For COc1cc(-n2c(=S)[nH]c3ccc(C)cc3c2=O)c(Cl)cc1Cl, which EC50 [2] is on record?
Answer: Its EC50 is > 79.4 µM (inactive).

Question: What about the EC50 [3] of the same compound?
Answer: The EC50 was > 79.4 µM (not active).

Question: And the EC50 [4]?
Answer: Its EC50 is > 79.4 µM (not active).

Question: Which EC50 [2] does the source give for Cn1c(=S)[nH]c2scc(-c3cccs3)c2c1=O here?
Answer: The EC50 was 10.5 µM (inactive).

Question: What about the EC50 [3] of the same compound?
Answer: The EC50 was 11.4 µM (not active).

Question: What about the EC50 [5] of the same compound?
Answer: The EC50 was 145 µM (inconclusive).

Question: What about the EC50 [4] of the same compound?
Answer: The EC50 was > 79.4 µM (not active).

Question: What about the EC50 [6] of the same compound?
Answer: Its EC50 is 0.361 µM (active).

Question: What does the source list for COc1ccc(OC)c(Nc2cc(C)nc3ccc(C)cc23)c1?
Answer: EC50 [7]: 5.96 µM (active); EC50 [8]: 11.7 µM (active); EC50 [9]: 44.2 µM (active); EC50 [10]: 6.31 µM (active); EC50 [11]: 12.3 µM (active); EC50 [12]: 9.69 µM (active); EC50 [13]: 18.8 µM (active); EC50 [14]: > 120 µM (not active)

Question: For COc1ccc2nc(NS(=O)(=O)c3ccc(NC(C)=O)cc3)sc2c1, which EC50 [7] is on record?
Answer: Its EC50 is 3.35 µM (active).

Question: And the EC50 [15]?
Answer: The EC50 was 3.76 µM (active).

Question: With CCCc1cc(O)nc(SCC(=O)Nc2sc3c(c2C#N)CCCC3)n1 as the compound, how does the EC50 [7] read?
Answer: Its EC50 is 4.73 µM (active).

Question: For Cc1cc(NCc2ccccc2)nc(N2CCOCC2)n1, which EC50 [7] is on record?
Answer: The EC50 was 4.73 µM (active).

Question: For CCOC(=O)C(C)Sc1nc2c(c(=O)[nH]c(=O)n2C)n1Cc1ccc(Cl)cc1 (stereo not given), which EC50 [7] is on record?
Answer: Its EC50 is 0.749 µM (active).

Question: With C=CCSC1=Nc2cc(OC)c(OC)cc2C2=NC(=O)CN12 as the compound, how does the EC50 [2] read?
Answer: The EC50 was > 79.4 µM (inactive).

Question: What about the EC50 [3] of the same compound?
Answer: Its EC50 is > 79.4 µM (not active).

Question: And the EC50 [4]?
Answer: Its EC50 is > 79.4 µM (not active).
